Assay results as given in the NIST ThermoML archive (doi:10.1021/je049950g).
± gives the expanded uncertainty stated by the source.

Settings: Liquid

| Structure (SMILES) | vapor or sublimation pressure (348.15 K) [kPa] | vapor or sublimation pressure (353.15 K) [kPa] | vapor or sublimation pressure (363.15 K) [kPa] | vapor or sublimation pressure (368.15 K) [kPa] | vapor or sublimation pressure (373.15 K) [kPa] | vapor or sublimation pressure (378.15 K) [kPa] | vapor or sublimation pressure (388.15 K) [kPa] | vapor or sublimation pressure (393.15 K) [kPa] | vapor or sublimation pressure (398.15 K) [kPa] | vapor or sublimation pressure (403.15 K) [kPa] | vapor or sublimation pressure (408.15 K) [kPa] | vapor or sublimation pressure (413.15 K) [kPa] | vapor or sublimation pressure (418.15 K) [kPa] | vapor or sublimation pressure (423.15 K) [kPa] | also measured |
| --- | --- | --- | --- | --- | --- | --- | --- | --- | --- | --- | --- | --- | --- | --- | --- |
| CC(=O)N(C)C [N,N-dimethylethanamide] | 4.135 ± 0.031 | 5.192 ± 0.037 | 7.995 ± 0.046 | 9.806 ± 0.054 | 11.98 ± 0.063 | 14.52 ± 0.074 | 21.01 ± 0.1 | 25.03 ± 0.12 | 29.69 ± 0.13 | 35.02 ± 0.15 | 41.11 ± 0.18 | 48.06 ± 0.2 | 55.91 ± 0.23 | 64.78 ± 0.26 | vapor or sublimation pressure (298.15 K): 0.2936 ± 0.0067 kPa; vapor or sublimation pressure (303.15 K): 0.3925 ± 0.0082 kPa; vapor or sublimation pressure (308.15 K): 0.5179 ± 0.01 kPa; vapor or sublimation pressure (313.15 K): 0.6782 ± 0.013 kPa; vapor or sublimation pressure (318.15 K): 0.8946 ± 0.016 kPa; vapor or sublimation pressure (323.15 K): 1.163 ± 0.02 kPa; vapor or sublimation pressure (328.15 K): 1.526 ± 0.021 kPa; vapor or sublimation pressure (333.15 K): 1.983 ± 0.023 kPa; vapor or sublimation pressure (338.15 K): 2.556 ± 0.025 kPa; vapor or sublimation pressure (343.15 K): 3.27 ± 0.028 kPa; vapor or sublimation pressure (383.15 K): 17.5 ± 0.086 kPa |
| CC1COC(=O)O1 (stereo not given) [4-methyl-1,3-dioxolan-2-one] | 0.2509 ± 0.024 | 0.3277 ± 0.029 | 0.5553 ± 0.043 | 0.7206 ± 0.053 | 0.9231 ± 0.066 | 1.167 ± 0.081 | 1.856 ± 0.086 | 2.284 ± 0.092 | 2.826 ± 0.099 | 3.482 ± 0.11 | 4.265 ± 0.12 | 5.153 ± 0.13 | 6.226 ± 0.14 | 7.454 ± 0.16 | vapor or sublimation pressure (358.15 K): 0.4377 ± 0.035 kPa; vapor or sublimation pressure (428.15 K): 8.959 ± 0.18 kPa; vapor or sublimation pressure (433.15 K): 10.78 ± 0.21 kPa; vapor or sublimation pressure (438.15 K): 12.69 ± 0.23 kPa; vapor or sublimation pressure (443.15 K): 14.81 ± 0.26 kPa; vapor or sublimation pressure (448.15 K): 17.81 ± 0.3 kPa; vapor or sublimation pressure (453.15 K): 20.5 ± 0.34 kPa; vapor or sublimation pressure (458.15 K): 24.08 ± 0.39 kPa; vapor or sublimation pressure (463.15 K): 27.96 ± 0.44 kPa; vapor or sublimation pressure (468.15 K): 33.01 ± 0.51 kPa; vapor or sublimation pressure (473.15 K): 37.77 ± 0.56 kPa |
